Test results published in patent US10941116B2, “Crystalline forms of mesaconine and preparation methods therefor” (Gooddoctor Pharmaceutical Group Co., Ltd., priority 2018, dated 2021).

Assays:
Format in all cases: physicochemical
[1] = Solubility test, Chinese pharmacopoeia 2015 edition, general notice; details: solvent: water
Source text: The crystalline form A of mesaconine was sampled and tested according to the method of solubility test in the Chinese pharmacopoeia (2015 edition, general notice).

[2] = Stability of crystalline form A of mesaconine by XRPD comparison (storage for 4 weeks; heating to 180° C.)
Method: After the samples of crystalline form A of mesaconine were placed at 25° C., 60% RH and 40° C., 75% RH for 4 weeks, it was performed XRPD test. The test result was compared with XRPD spectrum of comparative sample of crystalline form A of the mesaconine (XRPD spectrum of crystalline form A of mesaconine before stability test), and the results were shown in FIG. 4. Another sample of crystalline form A of mesaconine was heated to 180° C., and then was performed XRPD test. The test result was compared with XRPD spectrum of comparative sample of crystalline form A of the mesaconine (XRPD spectrum of crystalline form A of mesaconine before stability test), and the results were shown in FIG. 5.

[3] = Drug hygroscopicity test, Chinese Pharmacopoeia general rule 9103; details: for Percentage of weight increment(%): single batch
Method: The test was performed according to guiding principles for drug hygroscopicity test in Chinese Pharmacopoeia (general rule 9103, volume 4, 2015 edition).
According to the definition of hygroscopicity in Chinese Pharmacopoeia (general rule 9103, volume 4, 2015 edition): when the weight increment by hygroscopicity is less than 2% but not less than 0.2%, it has slight hygroscopicity. The weight increment of crystalline form A of mesaconine was 0.85% under the test conditions, which has slight hygroscopicity and good deliquescence resistance.

[4] = Influencing factors test (high temperature, high humidity, hard light irradiation), Chinese pharmacopoeia general rule 9001, analyzed by XRPD; details: open flat weighing bottle, 10 days
Method: In addition, the crystalline form A of mesaconine was sampled and tested for influencing factors according to the Guiding principle for stability test of raw materials of drugs and preparations (general rule 9001, the Chinese pharmacopoeia, 2015 edition).
High temperature test: the sample was placed in an open flat weighing bottle at 60° C. for 10 days. Then the sample was tested according to the key inspection items of stability test, and analyzed by X-ray powder diffraction.
High humidity test: the sample was placed in an open flat weighing bottle at 25° C. and 90% relative humidity for 10 days. Then the sample was tested according to the key inspection items of stability test, and analyzed by X-ray powder diffraction.
Hard light irradiation test: the sample was placed in an open flat weighing bottle for 10 days under the illuminance of 4500 lx. Then the sample was tested according to the key inspection items of stability test, and analyzed by X-ray powder diffraction.

[5] = Stability of crystalline form B of mesaconine by XRPD comparison after heating to 115° C.; details: heated to 115° C.
Method: Appropriate amount of crystalline form B of mesaconine was sampled and heated to 115° C., and then was performed XRPD test. The test result was compared with XRPD spectrum of comparative sample of crystalline form B of mesaconine (XRPD spectrum of crystalline form B of mesaconine before stability test), and the results were shown in FIG. 9.

Compound	Solubility [1]	Crystalline form stability (XRPD main diffraction peaks) ([2]; 25° C., 60% RH for 4 weeks)	Crystalline form stability (XRPD main diffraction peaks) ([2]; 40° C., 75% RH for 4 weeks)	Crystalline form stability (XRPD main diffraction peaks) ([2]; heated to 180° C.)	Hygroscopicity class ([3]; Chinese Pharmacopoeia definition)	Percentage of average weight increment(%) ([3]; hygroscopicity test, average of two batches)	Percentage of weight increment(%) ([3]; hygroscopicity test, listed as Sample 1)	Percentage of weight increment(%) ([3]; hygroscopicity test, listed as Sample 2)	Position and relative intensity of main XRPD diffraction peaks after high humidity test ([4]; 25° C., 90% relative humidity)	Position and relative intensity of main XRPD diffraction peaks after high temperature test ([4]; 60° C.)	Position and relative intensity of main XRPD diffraction peaks after hard light irradiation test ([4]; illuminance 4500 lx)	Crystalline form stability (XRPD main diffraction peaks) [5]
COC[C@]12CN(C)[C@@H]3[C@@H]4[C@H](OC)[C@H]1[C@@]3([C@@H](OC)C[C@H]2O)[C@@H]1C[C@@]2(O)[C@H](O)[C@@H]1[C@]4(O)[C@@H](O)[C@@H]2OC [crystalline form A of mesaconine, N-methyl-1α,6α,16β,18-tetramethoxyl-4-methyl-aconite-3α,8β,13β,14α,15α-pentol]	easily soluble (1 g of solute can be dissolved in 1~10 ml of solvent)	crystalline form did not change	crystalline form did not change	crystalline form did not change	slight hygroscopicity (when the weight increment by hygroscopicity is less than 2% but not less than 0.2%, it has slight hygroscopicity)	0.85%	0.85%	0.84%	had not changed significantly	had not changed significantly	had not changed significantly	–
N-methyl-1α,6α,16β,18-tetramethoxyl-4-methyl-aconite-3α,8β,13β,14α,15α-pentol [crystalline form B of mesaconine]	–	–	–	–	–	–	–	–	–	–	–	crystalline form did not change
